Laboratory results published in PMC11056381, “Characterization and evaluation of cytotoxic and antimicrobial activities of cyclotides from Viola japonica” (Scientific Reports, 2024).
In brackets after ≈: the same amount, converted by molar mass. Residues, ends and D or L forms follow the SMILES beside them.

Assays:
[1] = test system: THLE-3 (human hepatocytes cells); assay: MTT cytotoxicity assay; assay type: cell-based; conditions: THLE-3 cells, 48 h incubation, mean ± SD of at least three repeats
Procedure: (§1) Five types of cells, namely A549 (human non-small cell lung cancer cells), T24 (human bladder cancer cells), 4T1 (mouse breast cancer cells), 7402 (human hepatocellular carcinoma cells), and THLE-3 (human hepatocytes cells), are selected for evaluating the cytotoxicity of viba 11, cycloviolacin O2, and vija 10 using the MTT (3-(4,5-dimethylthiazol-2-yl)-2,5-diphenyltetrazolium bromide) reagent.
(§2) To determine cell toxicity using MTT assay, cells are seeded in a 96-well plate and cultured for 24 h. After that, different concentrations of cyclotides are added to the cells and incubated for 48 h. MTT is then added to react with the cells, and after 4 h, the reaction is terminated by discarding the supernatant and adding dimethyl sulfoxide for resuspension. The absorbance at 570 nm is measured after 10 min of shaking at room temperature. Each test was performed three times at least. The data were analyzed using GraphPad Prism 8. During this process, the drug concentrations were transformed into logarithmic form with a base of 10 and plotted on the x-axis. Cell viability (%) = [A (cyclotides) − A (blank)]/[A (control) − A (blank)] × 100, which was represented on the y-axis. Using this method, we determined the IC50 value for each experiment, with each experiment repeated at least three times and the mean value calculated. The error was represented by the standard deviation of the IC50 obtained from three repetitions.

[2] = test system: 4T1 (mouse breast cancer cells); assay: MTT cytotoxicity assay; assay type: cell-based; conditions: 4T1 cells, 48 h incubation, mean ± SD of at least three repeats
Procedure: as §1, §2

[3] = test system: A549 (human non-small cell lung cancer cells); assay: MTT cytotoxicity assay; assay type: cell-based; conditions: 48 h incubation, mean ± SD of at least three repeats
Procedure: as §1, §2

[4] = test system: T24 (human bladder cancer cells); assay: MTT cytotoxicity assay; assay type: cell-based; conditions: 48 h incubation, mean ± SD of at least three repeats
Procedure: as §1, §2

[5] = test system: 7402 (human hepatocellular carcinoma cells); assay: MTT cytotoxicity assay; assay type: cell-based; conditions: 7402 cells, 48 h incubation, mean ± SD of at least three repeats
Procedure: as §1, §2

[6] = test system: Staphylococcus aureus (CMCC(B)26003-2-10); assay: MIC, broth dilution in 96-well plate; assay type: cell-based; conditions: 10^6 CFU/ml, overnight 37 °C, visual clarity, performed at least three times
Source text: (§3) Cycloviolacin O2, known for its antimicrobial, hemolytic, and insecticidal activities, has been more extensively investigated[4],[20],[36]–[38]. Viba 11, originally discovered in Viola baoshanensis[39] and found in other plants such as Viola tricolor[40], Viola betonicifolia, and Viola philippica, lacks biological activity studies. These two cyclotides and vija 10 are high in content and easy to purify, and cycloviolacin O2 can also be used as a positive control to conduct activity study. In addition, few vija12 and 31 were extracted for antibacterial experiments. All purified cyclotides underwent antibacterial testing against Gram-positive bacterium Staphylococcus aureus (CMCC(B)26003-2-10) and Bacillus subtilis (CMCC(B)63501), Gram-negative bacteria, including Acinetobacter baumannii (ATCC19606), Escherichia coli (CMCC(B)44102-2-6), and Salmonella paratyphi (CMCC(B)50094-2-9). […] In addition, the MICs of viba 11, cycloviolacin O2 and vija 10 against B. subtilis were respectively 5.4 μM, 2.1 μM and 14.3 μM (Table 1). […] Therefore, it is hypothesized that the lower antimicrobial activity of vija 10 may be attributed to the presence of only one Lys residue in loop 5.
(§4) Bacterial fluids are cultured overnight at 37 °C. The next day, the bacterial liquids are diluted to a concentration of 10^6 CFU/ml. Prepare different concentrations of cyclotide drugs and kanamycin sulfate in advance, and sequentially add the drugs and bacterial liquid to the 96-well plate. Negative controls consisted of sterile water and bacterial liquid. The plate is cultured overnight at 37 °C and observe whether the solution remains clear to see the growth of the bacterial suspension. Each test was performed three times at least.

[7] = test system: Salmonella paratyphi (CMCC(B)50094-2-9); assay: MIC, broth dilution in 96-well plate; assay type: cell-based; conditions: 10^6 CFU/ml, overnight 37 °C, visual clarity, performed at least three times
Source text: as §3, §4

Acinetobacter baumannii = assay: DAPI/PI staining, laser scanning confocal microscopy (membrane integrity); assay type: cell-based; conditions: A. baumannii 10^8 CFU/mL, 37 °C, 1-2 h, DAPI and PI staining
Source text: Many naturally occurring antimicrobial peptides (AMPs) are cationic. Cationic AMPs (CAMPs) exert bactericidal activity by mechanisms featuring cell membrane disruption. Cyclotides are likely to kill germ by disrupting their membranes. Laser scanning confocal microscopy can be used to study the ability of cyclotides to destroy bacterial membrane. 4′, 6-diaminyl-2-phenylindole (DAPI) is a blue fluorescent dye that can penetrate membranes and stain both living and dead strains, while propyl iodide (PI) stains only strains with damaged membranes, glowing red[46],[47]. In this study, the bracelet cyclotide family members viba 11 and vija 10 interacted with A. baumannii and B. subtilis in their logarithmic phase at 37 °C for 1–2 h. After the addition of DAPI and PI fluorescent dyes, the samples were incubated in a dark room at room temperature for 15 min for staining. The stained samples were then centrifuged to concentrate, resuspended, and applied to a slide for observation using a confocal laser scanning microscope (FLUOVIEW FV3000, Olympus). […] With increasing concentration, the blue and red fluorescence gradually overlapped. […] However, the magnification is not sufficient to detect further details of membrane disruption. Therefore, further exploration can be conducted using methods such as scanning electron microscopy (SEM) to study the antibacterial mechanism in depth.
Figure 5 Study on the antimicrobial mechanism of cyclotides. (A) Incubation of Acinetobacter baumannii with sterile water, 1 MIC and 4 MIC of viba 11. (B) Incubation of Bacillus subtilis with sterile water, 1 MIC and 4 MIC of vija 10. All samples were stained with DAPI and PI. The negative control group PI is not stained and the membrane is intact, while the membrane treated with cyclotides was stained and the membrane are destroyed. Scale bar: 20 μm. Magnification: 600×.
Take 50 μL of A. baumannii and B. subtilis (10^8 CFU/mL), and add 50 μL of sterile water, different concentrations of cyclotides viba 11 and vija 10 to achieve final concentrations of 1 MIC and 4 MIC respectively. Incubate at 37 °C for 1–2 h. Subsequently, add 4,6-diamino-2-phenylindole (DAPI) and propidium iodide (PI) dyes at 20 μg/mL each, and incubate in the dark for 15 min. Centrifuge at 5000 rpm for 3 min to concentrate, discard the majority of the supernatant, and resuspend the bacteria in the remaining small volume of liquid. Mix well and take 10 μL of the stained sample onto a glass slide, gently place a cover slip on top with forceps, avoiding the formation of bubbles during the pressing process. After sealing the cover slip, check with a laser confocal microscope, and the observation was conducted using an objective lens with the maximum magnification of 60 × . […]

[8] = test system: Escherichia coli (CMCC(B)44102-2-6); assay: microbe, parasite or virus in culture; conditions: 10^6 CFU/ml, 96-well plate, overnight 37 °C, visual clarity, performed at least three times
Source text: (§5) Viba 11, originally discovered in Viola baoshanensis[39] and found in other plants such as Viola tricolor[40], Viola betonicifolia, and Viola philippica, lacks biological activity studies. […] All purified cyclotides underwent antibacterial testing against Gram-positive bacterium Staphylococcus aureus (CMCC(B)26003-2-10) and Bacillus subtilis (CMCC(B)63501), Gram-negative bacteria, including Acinetobacter baumannii (ATCC19606), Escherichia coli (CMCC(B)44102-2-6), and Salmonella paratyphi (CMCC(B)50094-2-9).
as §4

[9] = test system: Bacillus subtilis (CMCC(B)63501); assay: microbe, parasite or virus in culture; conditions: 10^6 CFU/ml, 96-well plate, overnight 37 °C, visual clarity, performed at least three times
Source text: as §5, §4

[10] = test system: Acinetobacter baumannii (ATCC19606); assay: microbe, parasite or virus in culture; conditions: Acinetobacter baumannii ATCC19606; 10^6 CFU/ml, 96-well plate, overnight 37 °C, visual clarity; performed at least three times
Source text: as §5, §4

Compound: CC[C@H](C)[C@@H]1NC(=O)[C@H](C)NC(=O)CNC(=O)[C@H](CO)NC(=O)[C@H]([C@@H](C)CC)NC(=O)[C@@H]2CSSC[C@@H]3NC(=O)[C@H](C(C)C)NC(=O)[C@H](CCCCN)NC(=O)[C@H](CO)NC(=O)[C@H](CCCCN)NC(=O)[C@@H]4CSSC[C@H](NC(=O)[C@H](CO)NC(=O)[C@H](CCC(=O)O)NC(=O)CNC(=O)[C@H](CSSC[C@H](NC(=O)CNC1=O)C(=O)N[C@@H](CO)C(=O)N4)NC(=O)[C@@H]1CCCN1C(=O)[C@H]([C@@H](C)CC)NC(=O)CNC(=O)[C@H](CC(N)=O)NC(=O)[C@H](CCCNC(=N)N)NC(=O)[C@H](Cc1ccc(O)cc1)NC3=O)C(=O)N[C@@H](C(C)C)C(=O)N[C@@H](Cc1c[nH]c3ccccc13)C(=O)N[C@@H]([C@@H](C)CC)C(=O)N1CCC[C@H]1C(=O)N2 [viba 11] (HELM PEPTIDE1{A.I.G.C.S.C.K.S.K.V.C.Y.R.N.G.I.P.C.G.E.S.C.V.W.I.P.C.I.S.G}$PEPTIDE1,PEPTIDE1,4:R3-18:R3|PEPTIDE1,PEPTIDE1,6:R3-22:R3|PEPTIDE1,PEPTIDE1,11:R3-27:R3|PEPTIDE1,PEPTIDE1,1:R1-30:R2$$$V2.0)
- IC50 [1]: 1.609 ± 0.01 µM
- IC50 [2]: 0.285 ± 0.01 µM
- IC50 [3]: 0.195 ± 0.09 µM
- IC50 [4]: 0.724 ± 0.17 µM
- IC50 [5]: 1.7 ± 0.05 µM
- MIC [6]: > 21.6 µM
- MIC [7]: > 21.6 µM
- membrane integrity (PI red fluorescence) (Acinetobacter baumannii; 1 MIC): caused damage to the membrane integrity
- membrane integrity (PI red fluorescence) (Acinetobacter baumannii; 4 MIC): majority of the cell membranes were ruptured
- MIC [8]: > 21.6 µM
- MIC [9]: 5.4 µM (≈ 16.8 µg/mL)
- MIC [10]: 10.8 µM (≈ 33.6 µg/mL)
